In PMC11995724, “Antibiotic target discovery by integrated phenotypic and activity-based profiling of electrophilic fragments” (Cell chemical biology, 2025):

test: in vitro; details: human, hek293t cells

SMILES | viability at 48 h, 25 µM [%]
Cc1ccc(CC(=O)CCl)cc1 [10-O13, 1-chloro-3-(4-methylphenyl)propan-2-one] | 67.6
O=C(CCl)NCCOc1ccc2ccccc2c1 [6-A14, 2-chloro-N-[2-(naphthalen-2-yloxy)ethyl]acetamide] | 0.0621
N#CC(=Cc1ccc(C#N)cc1)C(=O)Nc1ccc(F)c(Cl)c1 [9-A22, N-(3-chloro-4-fluorophenyl)-2-cyano-3-(4-cyanophenyl)prop-2-enamide] | 102
O=C1C=CC(=O)N1c1cc([N+](=O)[O-])ccc1Cl [10-H15, 1-(2-chloro-5-nitrophenyl)-2,5-dihydro-1H-pyrrole-2,5-dione] | 126
C=CC(=O)N1CCC(C(=O)NC(C)CC2CC2)CC1 (centres unmarked) [3-M05, N-(1-cyclopropylpropan-2-yl)-1-(prop-2-enoyl)piperidine-4-carboxamide] | 53.3
C=CC(=O)Nc1ccccc1Sc1nncs1 [1-G04, N-[2-(1,3,4-thiadiazol-2-ylsulfanyl)phenyl]prop-2-enamide] | 32.3
C=CC(=O)NCc1ccccc1CN1C(=O)NC2(CCCCC2)C1=O [2-O11, N-{[2-({2,4-dioxo-1,3-diazaspiro[4.5]decan-3-yl}methyl)phenyl]methyl}prop-2-enamide] | 71
CC(Cl)C(=O)N1CC(C(=O)N2CCN(C)CC2)Oc2ccccc21 (centres unmarked) [7-A20, 2-chloro-1-[2-(4-methylpiperazine-1-carbonyl)-3,4-dihydro-2H-1,4-benzoxazin-4-yl]propan-1-one] | 77.1
CCCc1cc(NC(=O)CCl)n(-c2ccccc2)n1 [4-M03, 2-chloro-N-(1-phenyl-3-propyl-1H-pyrazol-5-yl)acetamide] | 0.483
COc1ccc(CNC(=O)C(C)Cl)cc1 (centres unmarked) [5-J18, 2-chloro-N-[(4-methoxyphenyl)methyl]propanamide] | 98.5
C=CC(=O)Nc1ccc(C(=O)N2CCC(S(=O)(=O)NC)C2)cc1 (centres unmarked) [3-O08, N-{4-[3-(methylsulfamoyl)pyrrolidine-1-carbonyl]phenyl}prop-2-enamide] | 95.4
CC(Cl)C(=O)NCCC1(CO)CC1 (centres unmarked) [7-H19, 2-chloro-N-{2-[1-(hydroxymethyl)cyclopropyl]ethyl}propanamide] | 90.1
CC(Cl)C(=O)N1CCCC1CC(=O)c1cnn(C)c1 (centres unmarked) [6-D16, 2-chloro-1-{2-[2-(1-methyl-1H-pyrazol-4-yl)-2-oxoethyl]pyrrolidin-1-yl}propan-1-one] | 116
COCCNC(=O)C(C#N)=Cc1ccc(O)cc1 [9-D22, 2-cyano-3-(4-hydroxyphenyl)-N-(2-methoxyethyl)prop-2-enamide] | 110
C=CC(=O)NCCC(=O)N1CCSC(C)(C)C1 [3-G18, N-[3-(2,2-dimethylthiomorpholin-4-yl)-3-oxopropyl]prop-2-enamide] | 101
Cc1cc(N2CCCC(NC(=O)C(C)Cl)C2=O)n(C)n1 (centres unmarked) [7-B13, 2-chloro-N-[1-(1,3-dimethyl-1H-pyrazol-5-yl)-2-oxopiperidin-3-yl]propanamide] | 95.8
C=CC(=O)NCCS(=O)(=O)c1cccs1 [3-J17, N-[2-(thiophene-2-sulfonyl)ethyl]prop-2-enamide] | 93.4
O=C(O)c1coc(C(=O)CCl)c1 [10-B07, 5-(2-chloroacetyl)furan-3-carboxylic acid] | 107
C=CC(=O)N1CCC(C(=O)NC2CCCc3cc(F)ccc32)CC1 (centres unmarked) [2-K18, N-(6-fluoro-1,2,3,4-tetrahydronaphthalen-1-yl)-1-(prop-2-enoyl)piperidine-4-carboxamide] | 94.2

SMILES | viability at 48 h, 25 µM [%]
Cc1ccc(C(=O)c2c(NC(=O)CCl)sc3c2CCCC3)cc1 [6-A12, 2-chloro-N-[3-(4-methylbenzoyl)-4,5,6,7-tetrahydro-1-benzothiophen-2-yl]acetamide] | 14
O=C(CCl)Nc1cc(C2CC2)nn1-c1ccccc1 [4-I15, 2-chloro-N-(3-cyclopropyl-1-phenyl-1H-pyrazol-5-yl)acetamide] | 1.44
C=CC(=O)N1CCC(Cn2cnnc2)CC1 [3-P09, 1-{4-[(4H-1,2,4-triazol-4-yl)methyl]piperidin-1-yl}prop-2-en-1-one] | 43.5
COc1ccc(NC(=O)c2ccccc2NC(=O)CCl)cc1 [4-L05, 2-(2-chloroacetamido)-N-(4-methoxyphenyl)benzamide] | 0.046
O=C(CCl)NC1CCS(=O)(=O)c2ccc(F)cc21 (centres unmarked) [7-H06, 2-chloro-N-(6-fluoro-1,1-dioxo-3,4-dihydro-2H-1lambda6-benzothiopyran-4-yl)acetamide] | 1.04
Cc1ccc(C)c(C=C(C#N)C(=O)Nc2nccs2)c1 [9-N13, 2-cyano-3-(2,5-dimethylphenyl)-N-(1,3-thiazol-2-yl)prop-2-enamide] | 126
CC(Cl)C(=O)c1ccc(NC(=O)C(C)(C)C)cc1 (centres unmarked) [10-M06, N-[4-(2-chloropropanoyl)phenyl]-2,2-dimethylpropanamide] | 97.9
CC(Cl)C(=O)NCc1ncn(Cc2cccc(F)c2)n1 (centres unmarked) [7-K03, 2-chloro-N-({1-[(3-fluorophenyl)methyl]-1H-1,2,4-triazol-3-yl}methyl)propanamide] | 111
CC(Cl)C(=O)N1CCN(C2=NS(=O)(=O)c3ccccc32)CC1 (centres unmarked) [7-K11, 3-[4-(2-chloropropanoyl)piperazin-1-yl]-1lambda6,2-benzothiazole-1,1-dione] | 94.9
C=CC(=O)NC[C@@H]1C=C[C@H]2C[C@@H]1CO2 (racemic) [1-I03, rac-N-{[(1R,2S,5S)-6-oxabicyclo[3.2.1]oct-3-en-2-yl]methyl}prop-2-enamide] | 78.1
C=CC(=O)NC1(c2nc(C)no2)CC1 [3-L09, N-[1-(3-methyl-1,2,4-oxadiazol-5-yl)cyclopropyl]prop-2-enamide] | 46.8
Cc1cc(C(=O)CCl)c(C)n1CC(N)=O [10-O16, 2-[3-(2-chloroacetyl)-2,5-dimethyl-1H-pyrrol-1-yl]acetamide] | 108
COc1ccccc1NC(=O)C(C#N)=Cc1ccccc1F [8-E11, 2-cyano-3-(2-fluorophenyl)-N-(2-methoxyphenyl)prop-2-enamide] | 67.4
C=CC(=O)N(C)CC(=O)N1CCc2cc(OC)c(OC)cc2C1C (centres unmarked) [3-C04, N-[2-(6,7-dimethoxy-1-methyl-1,2,3,4-tetrahydroisoquinolin-2-yl)-2-oxoethyl]-N-methylprop-2-enamide] | 84.6
C=CC(=O)N1CCC(c2nc(C(=O)O)co2)CC1 [2-K03, 2-[1-(prop-2-enoyl)piperidin-4-yl]-1,3-oxazole-4-carboxylic acid] | 99.1
COc1ccc(C=C(C#N)C(=O)NCc2ccccc2)cc1O [8-C09, N-benzyl-2-cyano-3-(3-hydroxy-4-methoxyphenyl)prop-2-enamide] | 66.6
C=CC(=O)NCc1cccc(C(C)(F)F)c1 [3-O22, N-{[3-(1,1-difluoroethyl)phenyl]methyl}prop-2-enamide] | 136
Cc1cccc(C)c1NC(=O)C(C#N)=Cc1ccsc1 [8-I07, 2-cyano-N-(2,6-dimethylphenyl)-3-(thiophen-3-yl)prop-2-enamide] | 85.3
Cc1cccc(NC(=O)CCl)c1C [4-D04, 2-chloro-N-(2,3-dimethylphenyl)acetamide] | 1.62
